Reference: PubChem BioAssay AID504473 (NMMLSC, 2011)
Activity calls are given as the source filed them.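 How the source made its calls: active means GFP ratio to DMSO above 1.5 or below 0.66; inactive means the rest.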

Columns and labels:
Experiment in all cases: expression changes of rapamycin-responsive GFP fusion proteins, S. cerevisiae, GFP-tagged clone panel, flow cytometry (AID 504473);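 further: median GFP fluorescence of the cells measured by high-throughput flow cytometry; test concentration not given here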
[1] = target: General amino acid permease AGP1 (Saccharomyces cerevisiae S288c) (UniProt P25376); conditions: S. cerevisiae GFP-tagged strains, 3 h, YCL025C
YAL060W = conditions: S. cerevisiae GFP-tagged strains, 3 h
YAL061W = conditions: S. cerevisiae GFP-tagged strains, 3 h
YBL087C = conditions: S. cerevisiae GFP-tagged strains, 3 h
YBR072W = conditions: S. cerevisiae GFP-tagged strains, 3 h
YBR139W = conditions: S. cerevisiae GFP-tagged strains, 3 h
YBR208C = conditions: S. cerevisiae GFP-tagged strains, 3 h
YBR248C = conditions: S. cerevisiae GFP-tagged strains, 3 h
YCL064C = conditions: S. cerevisiae GFP-tagged strains, 3 h
YCR002C = conditions: S. cerevisiae GFP-tagged strains, 3 h
YCR005C = conditions: S. cerevisiae GFP-tagged strains, 3 h
YDL130W = conditions: S. cerevisiae GFP-tagged strains, 3 h
YDL204W = conditions: S. cerevisiae GFP-tagged strains, 3 h
YDL205C = conditions: S. cerevisiae GFP-tagged strains, 3 h
YDR070C = conditions: S. cerevisiae GFP-tagged strains, 3 h
YDR382W = conditions: S. cerevisiae GFP-tagged strains, 3 h
YDR399W = conditions: S. cerevisiae GFP-tagged strains, 3 h
YDR453C = conditions: S. cerevisiae GFP-tagged strains, 3 h
YEL007W = conditions: S. cerevisiae GFP-tagged strains, 3 h
YEL060C = conditions: S. cerevisiae GFP-tagged strains, 3 h
YEL063C = conditions: S. cerevisiae GFP-tagged strains, 3 h
YEL071W = conditions: S. cerevisiae GFP-tagged strains, 3 h
YER081W = conditions: S. cerevisiae GFP-tagged strains, 3 h
YER117W = conditions: S. cerevisiae GFP-tagged strains, 3 h
YER151C = conditions: S. cerevisiae GFP-tagged strains, 3 h
YER156C = conditions: S. cerevisiae GFP-tagged strains, 3 h
YFR031C-A = conditions: S. cerevisiae GFP-tagged strains, 3 h
YFR053C = conditions: S. cerevisiae GFP-tagged strains, 3 h
YGL036W = conditions: S. cerevisiae GFP-tagged strains, 3 h
YGL062W = conditions: S. cerevisiae GFP-tagged strains, 3 h
YGL135W = conditions: S. cerevisiae GFP-tagged strains, 3 h
YGL147C = conditions: S. cerevisiae GFP-tagged strains, 3 h
YGR019W = conditions: S. cerevisiae GFP-tagged strains, 3 h
YGR034W = conditions: S. cerevisiae GFP-tagged strains, 3 h
YGR088W = conditions: S. cerevisiae GFP-tagged strains, 3 h
YGR121C = conditions: S. cerevisiae GFP-tagged strains, 3 h
YHL021C = conditions: S. cerevisiae GFP-tagged strains, 3 h
YHR018C = conditions: S. cerevisiae GFP-tagged strains, 3 h
YHR087W = conditions: S. cerevisiae GFP-tagged strains, 3 h
YHR141C = conditions: S. cerevisiae GFP-tagged strains, 3 h
YHR144C = conditions: S. cerevisiae GFP-tagged strains, 3 h
YHR203C = conditions: S. cerevisiae GFP-tagged strains, 3 h
YIL043C = conditions: S. cerevisiae GFP-tagged strains, 3 h
YIL051C = conditions: S. cerevisiae GFP-tagged strains, 3 h
YIL052C = conditions: S. cerevisiae GFP-tagged strains, 3 h
YIL066C = conditions: S. cerevisiae GFP-tagged strains, 3 h
YIL069C = conditions: S. cerevisiae GFP-tagged strains, 3 h
YJL056C = conditions: S. cerevisiae GFP-tagged strains, 3 h
YJL144W = conditions: S. cerevisiae GFP-tagged strains, 3 h
YJR148W = conditions: S. cerevisiae GFP-tagged strains, 3 h
YKL086W = conditions: S. cerevisiae GFP-tagged strains, 3 h
YKL103C = conditions: S. cerevisiae GFP-tagged strains, 3 h
YKL119C = conditions: S. cerevisiae GFP-tagged strains, 3 h
YKR039W = conditions: S. cerevisiae GFP-tagged strains, 3 h
YKR093W = conditions: S. cerevisiae GFP-tagged strains, 3 h
YKR094C = conditions: S. cerevisiae GFP-tagged strains, 3 h
YLL026W = conditions: S. cerevisiae GFP-tagged strains, 3 h
YLL039C = conditions: S. cerevisiae GFP-tagged strains, 3 h
YLR058C = conditions: S. cerevisiae GFP-tagged strains, 3 h
YLR109W = conditions: S. cerevisiae GFP-tagged strains, 3 h
YLR142W = conditions: S. cerevisiae GFP-tagged strains, 3 h
YLR185W = conditions: S. cerevisiae GFP-tagged strains, 3 h
YLR237W = conditions: S. cerevisiae GFP-tagged strains, 3 h
YLR287C-A = conditions: S. cerevisiae GFP-tagged strains, 3 h
YLR367W = conditions: S. cerevisiae GFP-tagged strains, 3 h
YML004C = conditions: S. cerevisiae GFP-tagged strains, 3 h
YML026C = conditions: S. cerevisiae GFP-tagged strains, 3 h
YML034W = conditions: S. cerevisiae GFP-tagged strains, 3 h
YML063W = conditions: S. cerevisiae GFP-tagged strains, 3 h
YML128C = conditions: S. cerevisiae GFP-tagged strains, 3 h
YMR105C = conditions: S. cerevisiae GFP-tagged strains, 3 h
YMR120C = conditions: S. cerevisiae GFP-tagged strains, 3 h
YMR251W-A = conditions: S. cerevisiae GFP-tagged strains, 3 h
YMR307W = conditions: S. cerevisiae GFP-tagged strains, 3 h
YNL015W = conditions: S. cerevisiae GFP-tagged strains, 3 h
YNL068C = conditions: S. cerevisiae GFP-tagged strains, 3 h
YNL112W = conditions: S. cerevisiae GFP-tagged strains, 3 h
YNL142W = conditions: S. cerevisiae GFP-tagged strains, 3 h
YNL214W = conditions: S. cerevisiae GFP-tagged strains, 3 h
YNR001C = conditions: S. cerevisiae GFP-tagged strains, 3 h
YOL052C-A = conditions: S. cerevisiae GFP-tagged strains, 3 h
YOR038C = conditions: S. cerevisiae GFP-tagged strains, 3 h
YOR063W = conditions: S. cerevisiae GFP-tagged strains, 3 h
YOR136W = conditions: S. cerevisiae GFP-tagged strains, 3 h
YOR173W = conditions: S. cerevisiae GFP-tagged strains, 3 h
YOR182C = conditions: S. cerevisiae GFP-tagged strains, 3 h
YOR371C = conditions: S. cerevisiae GFP-tagged strains, 3 h
YOR375C = conditions: S. cerevisiae GFP-tagged strains, 3 h
YPL111W = conditions: S. cerevisiae GFP-tagged strains, 3 h
YPL131W = conditions: S. cerevisiae GFP-tagged strains, 3 h
YPL150W = conditions: S. cerevisiae GFP-tagged strains, 3 h
YPL220W = conditions: S. cerevisiae GFP-tagged strains, 3 h
YPL265W = conditions: S. cerevisiae GFP-tagged strains, 3 h
YPR132W = conditions: S. cerevisiae GFP-tagged strains, 3 h
YPR145W = conditions: S. cerevisiae GFP-tagged strains, 3 h
YPR184W = conditions: S. cerevisiae GFP-tagged strains, 3 h

Measured: GFP ratio to DMSO

Sequence of General amino acid permease AGP1 (Saccharomyces cerevisiae S288c) (P25376 whole entry, looked up): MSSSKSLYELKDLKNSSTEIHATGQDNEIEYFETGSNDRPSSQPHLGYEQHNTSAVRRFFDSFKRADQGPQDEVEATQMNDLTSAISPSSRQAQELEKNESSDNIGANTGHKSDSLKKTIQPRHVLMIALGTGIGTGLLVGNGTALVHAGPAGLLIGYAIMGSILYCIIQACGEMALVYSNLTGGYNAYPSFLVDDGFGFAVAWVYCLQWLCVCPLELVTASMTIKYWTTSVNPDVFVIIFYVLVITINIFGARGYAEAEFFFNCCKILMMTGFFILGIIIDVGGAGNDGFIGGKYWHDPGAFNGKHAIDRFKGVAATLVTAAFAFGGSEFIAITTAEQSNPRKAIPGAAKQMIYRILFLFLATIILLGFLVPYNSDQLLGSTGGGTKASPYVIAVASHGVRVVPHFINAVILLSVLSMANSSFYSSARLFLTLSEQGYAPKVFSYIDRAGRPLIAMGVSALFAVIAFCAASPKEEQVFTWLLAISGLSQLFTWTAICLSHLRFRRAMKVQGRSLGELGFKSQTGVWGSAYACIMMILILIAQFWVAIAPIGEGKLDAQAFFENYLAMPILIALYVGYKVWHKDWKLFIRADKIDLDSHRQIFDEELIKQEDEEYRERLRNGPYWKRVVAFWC

CNc1nc(N)c([N+](=O)[O-])c(Nc2ccccc2)n1
inactive: [1] 0.776 | YAL060W 0.91 | YAL061W 0.796 | YBL087C 1 | YBR072W 0.795 | YBR139W 0.915 | YBR208C 0.853 | YBR248C 0.927 | YCL064C 0.878 | YCR002C 0.929 | YCR005C 1.37 | YDL130W 1.09 | YDL204W 0.948 | YDL205C 0.983 | YDR070C 0.918 | YDR382W 1.14 | YDR399W 0.947 | YDR453C 0.899 | YEL007W 0.874 | YEL060C 0.694 | YEL063C 1.03 | YER081W 1.14 | YER117W 0.909 | YER151C 0.943 | YER156C 0.978 | YFR031C-A 1.06 | YFR053C 0.83 | YGL036W 0.822 | YGL062W 1.34 | YGL135W 1.08 | YGL147C 1.05 | YGR019W 0.906 | YGR034W 1.07 | YGR088W 0.924 | YGR121C 0.942 | YHL021C 1.07 | YHR018C 0.874 | YHR087W 0.827 | YHR141C 1.04 | YHR144C 0.896 | YHR203C 1.04 | YIL043C 1.02 | YIL051C 0.923 | YIL052C 0.931 | YIL066C 0.844 | YIL069C 1.11 | YJL056C 0.808 | YJL144W 0.911 | YJR148W 1.26 | YKL086W 0.881 | YKL103C 0.988 | YKL119C 0.959 | YKR039W 0.804 | YKR093W 1.17 | YKR094C 1.11 | YLL026W 1 | YLL039C 0.733 | YLR058C 0.838 | YLR109W 1.17 | YLR142W 0.866 | YLR185W 1.08 | YLR237W 0.848 | YLR287C-A 1.1 | YLR367W 1.06 | YML004C 0.838 | YML026C 0.957 | YML034W 0.814 | YML063W 1.07 | YML128C 0.827 | YMR105C 1.02 | YMR251W-A 0.892 | YMR307W 1.05 | YNL015W 0.929 | YNL068C 0.902 | YNL112W 1.12 | YNL142W 0.933 | YNL214W 1.01 | YNR001C 1.05 | YOL052C-A 0.961 | YOR038C 0.966 | YOR063W 1.07 | YOR136W 1.11 | YOR173W 0.941 | YOR182C 1.02 | YOR371C 0.844 | YOR375C 1.03 | YPL111W 1.02 | YPL131W 1.14 | YPL150W 0.843 | YPL220W 1.01 | YPL265W 1.38 | YPR132W 1.18 | YPR145W 1.17 | YPR184W 0.886
active: YEL071W 1.66 | YMR120C 0.519
